Drawing on patent publication US4791197A, “Cephalosporin compounds” (priority 1984, dated 1988), this text covers MIC for three compounds.

Holding throughout (experiment): MIC against growth of bacteria by agar-dilution method
Assay type in all cases: cell-based

For assay [1], the system named is Proteus vulgaris GN 76. The settings on record: GN76. The text has this: (§1) The compounds of this invention are all novel compounds.
Assay [2] concerns Salmonella typhimurium LT-2. The settings on record: Salmonella enterica.
From the text: as §1

The subject of assay [3] is Staphylococcus aureus 209P JC-1.
From the text: as §1

For assay [4], the system named is Proteus mirabillis GN 79.
From the text: as §1

Assay [5] concerns Staphylococcus aureus Smith.
From the text: as §1

Assay [6] relates to Serratia marcescens No. 1.
From the text: as §1

In assay [7] the test system is Proteus rettgeri GN 624. As to conditions: Providencia rettgeri, GN624.
From the text: as §1

Assay [8] concerns Klebsiella pneumoniae PCI 602. As to conditions: PCI602.
From the text: as §1

Assay [9] concerns Escherichia coli NIHJ JC-2. As to conditions: NIHJJC2.
From the text: as §1

Assay [10] has as its system Pseudomonas aeruginosa MB 3833. The settings on record: MB3833.
From the text: as §1

Counter-ions that a name gives are not always drawn. Where only a bound is given, the exact number is not on record here.

Consider `Cc1nnc(SCC2=C(C(=O)O)N3C(=O)C(NC(=O)/C(=C\C(=O)O)c4csc(N)n4)C3SC2)s1` (stereo not drawn) [Example 2, 7-[2-(2-aminothiazol-4-yl)-2-carboxymethylene-acetamido]-3-(5-methyl-1,3,4-thiadiazol-2-yl)thiomethyl-3-cephem-4-carboxylic acid (Z-isomer) trifluoroacetate], for which the MIC (as a rule, the smallest concentration in the dilution series that meets the test's criterion for growth inhibition) in assay [1] was determined as 0.39 µg/mL; in assay [2] it was 0.39 µg/mL; in assay [3], 3.13 µg/mL; in [4], 0.2 µg/mL; in [5] it was 3.13 µg/mL; in [6], 0.1 µg/mL. Besides, the minimum inhibitory concentration (MIC) was at most 0.025 µg/mL in assay [7], 0.78 µg/mL in [8], 0.78 µg/mL in assay [9] and above 50 µg/mL in assay [10].

As to `C[n+]1ccc(SCC2=C(C(=O)O)N3C(=O)C(NC(=O)/C(=C\C(=O)O)c4csc(N)n4)C3SC2)cc1` (stereo not drawn) [Example 7, 7-[2-(2-aminothiazol-4-yl)-2-carboxymethyleneacetamido]-3-(1-methylpyridinium-4-yl)thiomethyl-3-cephem-4-carboxylic acid (Z-isomer) trifluoroacetate], the minimum inhibitory concentration (MIC) was 3.13 µg/mL in [1]; 0.39 µg/mL in [2]; 0.2 µg/mL in assay [3]; 1.56 µg/mL in assay [4]; 0.39 µg/mL in assay [5]; 0.78 µg/mL in assay [6]. The MIC is 0.1 µg/mL in [7], 0.78 µg/mL in [8], 0.39 µg/mL in [9] and above 50 µg/mL in assay [10].

For the compound `C[n+]1ccc(SCC2=C(C(=O)O)N3C(=O)C(NC(=O)/C(=C/C(=O)O)c4csc(N)n4)C3SC2)cc1` (stereo not drawn) [Example 10, 7-[2-(2-aminothiazol-4-yl)-2-carboxymethylene-acetamido]-3-(1-methylpyridinium-4-yl)thiomethyl-3-cephem-4-carboxylic acid (E-isomer) trifluoroacetate], the MIC in assay [1] was above 50 µg/mL; in [2], 12.5 µg/mL; in [3], 0.78 µg/mL; in assay [4] it was 50 µg/mL; in [5] it was 0.78 µg/mL; in [6], 25 µg/mL. Besides, the MIC was 3.13 µg/mL in assay [7], 25 µg/mL in assay [8], 12.5 µg/mL in assay [9] and above 50 µg/mL in assay [10].
